Assay results: patent publication US20070110743A1, “Methods of protein production using anti-senescence compounds” (Wyeth, priority 2005, published 2007)

Assays:
[1] = system: MYO-29 cell line; assay: Carnosine addition to 1 L fed-batch bioreactor cell culture (Example 2); type: cell-based; conditions: 20 mM carnosine added day 4
Procedure: Five bioreactors were inoculated with 0.9×10^6 cells/ml with a 1 L working volume of a MYO-29 cell line in a serum free inoculation medium. All the bioreactors were fed 5% (v/v) of a feed medium on days 3, 5, 7, and 12 of a 14-day run. A day 10 feed of 5% (v/v) of the feed medium was added to two of the control bioreactors and one containing carnosine. The conditions of the bioreactors were held at a temperature of 37° C., a pH of 7.00, and a dissolved oxygen level at 30% air saturation.
The bioreactors were harvested on day 14 of the production run. Samples were taken throughout the run to monitor the progress of the cell culture medium. The controls performed as expected.

[2] = system: MYO-29 cell line; assay: Different concentrations of carnosine in 1 L bioreactor cell culture (Example 3); type: cell-based
Procedure: Four bioreactors were inoculated with 0.4×10^6 cells/ml with a 1 L working volume of a MYO-29 cell line in a serum free inoculation medium. All the bioreactors were all fed 5% (v/v) of a feed medium on day 7 of the 14-day run. The conditions of the bioreactor were held at a temperature of 37° C., a pH of 7.00, and a dissolved oxygen level at 30% air saturation.
All cells were cultured for four days at which point the temperature was shifted in all of the bioreactors to 31° C. […] All bioreactors were harvested on day 12 of the production run. Samples were taken throughout the run to monitor the progress of the cell culture medium. The controls performed generally as expected, except one control had slightly lower daily viabilities than previously seen.

[3] = system: human diploid fibroblasts and human fetal lung (primary cell lines); conditions: concentration of 20 mM in culture media; cited from earlier work
[4] = system: human or rodent transformed and neoplastic cells; conditions: cited from earlier work
[5] = addition of the chemical agent to the culture; cited from earlier work

Row | Compound | cumulative specific cellular productivity ([1]; 14-day run) | daily titer at the time of harvest ([1]; harvest day 14) | daily cell viability upon being harvested ([1]; harvest day 14, compared to bioreactors without carnosine) | daily titer ([2]; 20 mM or 40 mM carnosine added day 4, compared with one of the controls) | daily cell viability upon being harvested ([2]; 20 mM or 40 mM carnosine added day 4, harvest day 12, compared to two control bioreactors) | daily viable cell density ([2]; 20 mM or 40 mM carnosine added day 4, versus controls) | cumulative specific cellular productivity ([2]; 40 mM carnosine added day 4) | lifespan of cells [3] | cytotoxic effects ([4]; dialyzed fetal calf serum with low molecular weight compounds removed) | cytotoxicity ([4]; in Minimal Essential Medium (MEM), lower glucose levels) | cell growth and viable cell number [5]
1 | NCCC(=O)N[C@@H](Cc1cnc[nH]1)C(=O)O [carnosine] | better | higher titer | higher | similar | higher viability | fairly similar with the exception of the bioreactor with 4 mM of carnosine | higher | extend the lifespan | increased the cytotoxic effects | cytotoxic | 
2 | CCCC(=O)[O-].[Na+] [sodium butyrate] |  |  |  |  |  |  |  |  |  |  | cell growth ceases and the viable cell number decreases
